Source: ChEMBL document CHEMBL1125160, “Dihydropyrimidine calcium channel blockers: 2-heterosubstituted 4-aryl-1,4-dihydro-6-methyl-5-pyrimidinecarboxylic acid esters as potent mimics of dihydropyridines” (J Med Chem, 1990)

species on record: Oryctolagus cuniculus; assay: Vasorelaxant potency in isolated potassium (K(+)-depolarized rabbit thoracic aorta.; type: functional

Row | Compound | IC50
1 | COC(=O)C1=C(C)N=C(SC)NC1c1cccc([N+](=O)[O-])c1 (stereo not given) | 280 nM
2 | CC1=C(C(=O)OC(C)C)C(c2cccc([N+](=O)[O-])c2)N=C(SCCN(C)C)N1 (stereo not given) | 1200 nM
3 | C=CCSC1=NC(c2cccc([N+](=O)[O-])c2)C(C(=O)OCC)=C(C)N1 (stereo not given) | 300 nM
4 | CCOC(=O)C1=C(C)NC(OCC)=C(C(=O)OCC)C1c1cccc([N+](=O)[O-])c1 (stereo not given) | 26 nM
5 | CCOC(=O)C1=C(C)NC(SC)=NC1c1ccccc1C(F)(F)F (stereo not given) | 36 nM
6 | CSC1=NC(c2cccc(Cl)c2Cl)C(C(=O)OC(C)C)=C(C)N1 (stereo not given) | 6 nM
7 | CSC1=NC(c2ccccc2C(F)(F)F)C(C(=O)OCCN(C)Cc2ccccc2)=C(C)N1 (stereo not given) | > 100000 nM
8 | CCOC(=O)C1=C(C)NC(SCc2ccccc2)=NC1c1cccc([N+](=O)[O-])c1 (stereo not given) | 190 nM
9 | CCOC(=O)C1=C(C)N=C(OC)NC1c1cccc([N+](=O)[O-])c1 (stereo not given) | 710 nM

Continued by falling IC50, values first:

Row | IC50 | Compound
10 | 6100 nM | CCOC(=O)C1=C(C)NC(N(C)C)=NC1c1cccc([N+](=O)[O-])c1 (stereo not given)
11 | 1900 nM | CSC1=NC(c2ccccc2[N+](=O)[O-])C(C(=O)OCCN(C)Cc2ccccc2)=C(C)N1 (stereo not given)
12 | 300 nM | CCOC(=O)C1=C(C)NC(SC)=NC1c1ccccc1[N+](=O)[O-] (stereo not given)
13 | 180 nM | CCCCCSC1=NC(c2cccc([N+](=O)[O-])c2)C(C(=O)OCC)=C(C)N1 (stereo not given)
14 | 170 nM | CCOC(=O)C1=C(C)NC(SCCN(C)Cc2ccccc2)=NC1c1cccc([N+](=O)[O-])c1 (stereo not given)
15 | 130 nM | CCOC(=O)C1=C(C)NC(SC)=NC1c1cccc([N+](=O)[O-])c1 (stereo not given)
16 | 30 nM | CSC1=NC(c2cccc([N+](=O)[O-])c2)C(C(=O)OCCN(C)Cc2ccccc2)=C(C)N1 (stereo not given)
17 | 16 nM | CCOC(=O)C1=C(C)NC(SC)=NC1c1cccc(Cl)c1Cl (stereo not given)
18 | 9 nM | CCC(C)OC(=O)C1=C(C)NC(SC)=NC1c1cccc([N+](=O)[O-])c1 (stereo not given)
19 | 7 nM | CSC1=NC(c2cccc([N+](=O)[O-])c2)C(C(=O)OC(C)C)=C(C)N1 (stereo not given)
20 | 4 nM | CCOC(=O)C1=C(C)NC(SCC)=C(C(=O)OCC)C1c1cccc([N+](=O)[O-])c1 (stereo not given)
